Measurements as given in patent US5756491A, “Antiviral cobalt-organic compounds” (priority 1991, dated 1998).

Experiments:
[1] = system: RE strain HSV-1; assay: Topical efficacy in RE strain HSV-1-induced stromal keratitis in the rabbit; type: in vivo, NZW rabbit; conditions: for efficacy ranking, average stromal disease scores: Example 4, FIG. 2
Description: The following examples describe topical ocular evaluation of the inventive compounds during RE strain HSV-1-induced stromal keratitis in the rabbit. These evaluations included analysis of the topical efficacy of both the inventive compounds alone, or, in certain instances, in combination with trifluorothymidine (TFT). The evaluation was carried out by the combined analysis of both clinical and virological (HSV-1 recovery) parameters. The specified number of NZW rabbits (1.5-2.0 kg) were used. Animals were received at least two days prior to inoculation to allow them to accommodate to the conditions in the vivarium facility. This conditioning of the animals prior to inoculation minimizes animal variability. After the accommodation, the animals received a slit-lamp examination to exclude any animals with pre-existing anterior segment ocular defects. Animals were bi-laterally inoculated by intrastromal injection of 10^5 PFU RE strain HSV-1. The animals were then replaced individually into cages. On day number three post-inoculation (PI), the animals were evaluated by slit-lamp microscopy. Corneal stromal, iris and conjunctival disease were graded on an increasing scale of severity from 0+ to 4+. After evaluation, the animals were divided into a specified number of groups each containing an equal number of animals based on a matched corneal stromal involvement. Topical therapy was initiated immediately after animal groupings. All animals received daily slit-lamp evaluations from day 3 through 7 PI. The ocular HSV-1 induced disease severity was recorded daily. […] Differences in disease resolution and development of stromal alterations are statistically analyzed. Virus recovery during and after topical therapy was compared. The topical efficacy of Compounds 23 and 96 on stromal HSV-1 infection in the rabbit model of stromal keratitis was evaluated. All animals received daily slit lamp evaluations from day 3 through day 7 and on days 9 and 10 PI. The ocular HSV-1-induced disease severity was recorded daily. The topical efficacy of Compounds 23, 96 and 82 on stromal HSV-1 infection in the rabbit model of stromal keratitis was evaluated. All animals received daily slit lamp evaluations for day 3 through day 7 PI. The ocular HSV-1-induced disease severity was recorded daily. The topical efficacy of Compounds 23 and 96 in combination with TFT on stromal HSV-1 infection in the rabbit model of stromal keratitis was evaluated. Groups 1, 2 and 3 each have 5 animals for a total of 10 eyes per combination therapy. This allowed minimization of individual animal variability and performance of a statistical analysis on the results of the combination therapies. Groups 3, 4 and 5 have 2 animals each. These single-agent therapies were used to verify previously reported data on the efficacy of these compounds. The compounds are used at a lower frequency of delivery to match the dosing regimen of the combination-agent group. Consequently, the study also provides comparative information on Compounds 23 and 96 as a lower frequency of topical administration (4 times per day vs. 9 times per day in previous studies).

[2] = system: HFF cells; assay: MTT assay for cell cytotoxicity; type: cell-based, human; conditions: stationary cells
Description: Twenty-four hours prior to assay, HFF cells are plated into 96 well plates at a concentration of […] cells per well. After 24 h, the media is aspirated and […] of drug is added to the first row of wells and then diluted serially 1:5 using the automated Cetus Liquid Handling System in a manner similar to that used in the CPE assay. The plates are then incubated in a CO2 incubator at 37° C. for seven days. At this time, each well receives 50 microliters of […] solution of MTT in Dulbecco's Phosphate Buffered Saline. The plates are then incubated for an additional four hours. At this time, the media is removed and replaced with 100 μl of 0.04N hydrochloric acid in isopropanol. After shaking briefly, the plates are then read on a plate reader at 550 nm.

[3] = system: HFF cells; assay: Cell proliferation assay; type: cell-based, human; conditions: rapidly growing cells
Description: Twenty-four hours prior to assay, HFF cells are seeded in 6-well plates at a concentration of 2.5×10^4 cells per well in MEM containing 10% FBS. On the day of the assay, drugs are diluted serially in MEM containing 10% FBS at increments of 1:5 covering a range from 100 μg/ml to 0.03 μg/ml. […] The media from the wells is then aspirated and 2 ml of each drug concentration is then added to each well. The cells are then incubated in a Co2 incubator at 37° C. for 72 h. At the end of this time, the media-drug solution is removed and the cells washed. […] The cell-media mixture is then pipetted up and down vigorously to break up the cell suspension and 0.2 ml of the mixture is added to 9.8 ml of Isoton III and counted using a Coulter Counter. Each sample is counted three times with three replicate wells per sample.

[4] = system: human foreskin fibroblast (HFF) cell monolayers; assay: Toxicity effects controls: sham-inoculated compound-treated HFF monolayers; type: cell-based; for Toxicity effects: key: +: toxic; -: no toxicity; ±: mild toxicity; T: toxicity effects interfered with CPE rating
Excerpt: With sufficient stirring, all the compounds completely dissolved.
In the tables, the symbols have the meaning indicated: […]

[5] = Description: A stock solution of each compound to be tested at a concentration of 5 mg/ml was prepared. The stock solution was serially diluted in Hank's Balanced Salt Solution (HBSS) to obtain final drug concentrations of 5, 2, 1, 0.5, 0.1, 0.01, 0.001 and 0.0001 mg/ml. […] In such cases, the highest dissolved concentration that could be obtained was utilized.
Concentrations of compounds 93, 96, and 23 were prepared as follows: A stock solution of each compound at a concentration of 5 mg/ml was made. This stock solution was serially diluted in Hanks Balanced Salt Solution to obtain final drug concentrations of: 5, 2, 1, 0.5, 0.1, 0.01, 0.001, and 0.0001 mg/ml. Five hundred μl of each drug concentration were added to triplicate infected monolayers.

[6] = Experiment 1 (Table 1), 24 h PI, 0.001 mg/ml
[7] = Experiment 1 (Table 1), 24 h PI, 0.01 mg/ml
[8] = Experiment 1 (Table 1), 24 h PI, 0.1 mg/ml
[9] = Experiment 1 (Table 1), 24 h PI, 1 mg/ml
[10] = Experiment 1 (Table 1), 48 h PI, 0.001 mg/ml
[11] = Experiment 1 (Table 1), 48 h PI, 0.01 mg/ml
[12] = Experiment 1 (Table 1), 48 h PI, 0.1 mg/ml
[13] = Experiment 6 (Table 15), 48 h, 0.001 mg/ml
[14] = Experiment 6 (Table 15), 48 h, 0.01 mg/ml

SMILES: CC1=CC(C)=[N+]2CC[N+]3=C(C)C=C(C)[O][Co-3]23([NH3+])([NH3+])[O]1.[Cl-] [Compound 23, reference compound]
- efficacy ranking during stromal HSV-1 infection ([1]; Example 3, all eyes, FIG. 1, 1 mg/ml (TFT 0.1%), 9x/day, 5 days): Compound 96>>Compound 23>TFT>Placebo
- efficacy vs TFT therapy ([1]; Example 3, days 7, 9 and 10 PI): superior to TFT therapy
- efficacy ranking, average stromal disease scores [1]: Compound 96>Compound 82>Compound 23>TFT=Placebo
- effect on stromal disease severity/progression ([1]; Example 5, FIG. 5, initial stromal disease <0.5 on day 3 PI): slowed the progression of stromal disease
- toxicity IC50, MTT toxicity [2]: > 61 MCG/ML
- toxicity IC50, cell proliferation [3]: 6.2 MCG/ML
- toxicity effects [4, 6]: -
- toxicity effects [4, 7]: -
- toxicity effects [4, 8]: -
- toxicity effects [4, 9]: -
- toxicity effects [4, 10]: -
- toxicity effects [4, 11]: -
- toxicity effects [4, 12]: -
- toxicity effects ([4]; Experiment 1 (Table 1), 48 h PI, 10 mg/ml): +
- toxicity effects ([4]; Experiment 3 (Table 7), 24 h PI, 0.001 mg/ml): -
- toxicity effects ([4]; Experiment 3 (Table 7), 24 h PI, 0.01 mg/ml): -
- toxicity effects ([4]; Experiment 3 (Table 7), 24 h PI, 0.1 mg/ml): -
- toxicity effects ([4]; Experiment 3 (Table 7), 48 h PI, 0.001 mg/ml): -
- toxicity effects ([4]; Experiment 3 (Table 7), 48 h PI, 0.01 mg/ml): -
- toxicity effects ([4]; Experiment 3 (Table 7), 48 h PI, 0.1 mg/ml): -
- toxicity effects [4, 13]: -
- toxicity effects [4, 14]: -
- toxicity effects ([4]; Experiment 6 (Table 15), 48 h, 0.1 mg/ml): -
- toxicity effects ([4]; Experiment 6 (Table 15), 48 h, 0.5 mg/ml): -
- toxicity effects ([4]; Experiment 6 (Table 15), 48 h, 1 mg/ml): -

SMILES: CC([O-])=CC(C)=NCCN=C(C)C=C(C)[O-].[Cl-].[Co+3].c1c[nH]cn1.c1c[nH]cn1 [Compound 82]
- efficacy relative to Compounds 23 and 96 ([1]; Example 4): intermediate between Compounds 23 and 96
- reduction of stromal disease development ([1]; Example 4, 1 mg/ml, severity <0.5+ on day 3 PI): effective in reducing the development of stromal disease
- efficacy ranking, average stromal disease scores [1]: Compound 96>Compound 82>Compound 23>TFT=Placebo
- effect on development or progression of stromal disease ([1]; Example 4, severity >0.75): did not alter the development or progression of stromal disease
- toxicity effects [4, 6]: -
- toxicity effects [4, 7]: -
- toxicity effects [4, 8]: -
- toxicity effects [4, 9]: -
- toxicity effects ([4]; Experiment 1 (Table 1), 24 h PI, 10 mg/ml): -
- toxicity effects [4, 10]: -
- toxicity effects [4, 11]: -
- toxicity effects [4, 12]: -
- toxicity effects ([4]; Experiment 1 (Table 1), 48 h PI, 1 mg/ml): -
- toxicity compared with 23 and 76 ([4]; Experiment 1 comment, less than the observed toxicity of 23 and 76): one order of magnitud

SMILES: CC(=NCCN=C(C)C(Cl)=C(C)[O-])C(Cl)=C(C)[O-].[Br-].[Co+3].c1c[nH]cn1.c1c[nH]cn1 [Compound 93]
- solubility at 5 and 2 mg/ml [5]: not to be soluble
- toxicity IC50, MTT toxicity [2]: 65.0 MCG/ML
- toxicity IC50, cell proliferation [3]: 25.0 MCG/ML
- toxicity effects ([4]; Experiment 4 (Table 10), 24 h, 0.001 mg/ml): -
- toxicity effects ([4]; Experiment 4 (Table 10), 24 h, 0.01 mg/ml): -
- toxicity effects ([4]; Experiment 4 (Table 10), 24 h, 0.1 mg/ml): -
- toxicity effects ([4]; Experiment 4 (Table 10), 24 h, 0.5 mg/ml): -
- toxicity effects ([4]; Experiment 4 (Table 10), 24 h, 1 mg/ml): -
- toxicity effects ([4]; Experiment 4 (Table 10), 48 h, 0.001 mg/ml): -
- toxicity effects ([4]; Experiment 4 (Table 10), 48 h, 0.01 mg/ml): -
- toxicity effects ([4]; Experiment 4 (Table 10), 48 h, 0.5 mg/ml): -
- toxicity effects ([4]; Experiment 4 (Table 10), 48 h, 1 mg/ml): -
- toxicity effects [4, 13]: -
- toxicity effects [4, 14]: -
- toxicity to HFF monolayers (comment) ([4]; Experiment 6 comment, more pronounced at 0.5 and 0.1 mg/ml, cell rounding, detaching, granularity): toxicity observed
